One assay deals with T1, COX I (Homo sapiens, UniProt P23219).
T1 construct: made in house; baculovirus-infected insect cells by own knowledge of the cited Barnett et al. 1994
Put plainly: Inhibition of COX I in vitro (radiometric assay, 14C arachidonic acid, partially purified enzyme). The assay is classed as biochemical. As for the experimental part:
(§1) The COX I and COX II inhibitory activity of compounds of this invention in vitro was determined using partially purified COX I and COX II enzymes, prepared as described in J. Barnett et al., Biochim. Biophys. Acta, 1209:130--139 (1994).
(§2) COX I and COX II samples were diluted with Tris-HCl buffer (50 mM Tris-HCl pH 7.9) containing 2 mM EDTA and 10% glycerol and reconstituted by incubating first with 2 mM phenol for 5 minutes and then with 1 micromolar hematin for an additional 5 minutes. 125 μl of the reconstituted COX I or COX II enzyme were preincubated for 10 minutes at room temperature in a shaking water bath with the compounds of the invention dissolved in 2-15 μl of DMSO or the carrier vehicles (control samples). The enzyme reaction was initiated by adding 25 μl of 1-[14C] arachidonic acid (80,000-100,000 cpm/tube; 20 micromolar final concentration) and the reaction was allowed to continue for an additional 45 seconds. The reaction was terminated by adding 100 μl of 2N HCl and 750 μl water. An aliquot (950 μl) of the reaction mixture was loaded onto a 1 ml C18 Sep-Pak column (J. T. Baker, Phillipsburg, N.J.) which had been previously washed with 2-3 ml methanol and equilibrated with 5-6 ml distilled water. Oxygenated products were quantitatively eluted with 3 ml of acetonitrile/water/acetic acid (50:50:0.1, v/v) and the radioactivity in the eluate determined in a scintillation counter.

The target in the next assay is T2, COX II (Homo sapiens, UniProt P35354).
T2 construct: made in house; baculovirus-infected insect cells by own knowledge of the cited Barnett et al. 1994
T2 sequence (P35354 18-604): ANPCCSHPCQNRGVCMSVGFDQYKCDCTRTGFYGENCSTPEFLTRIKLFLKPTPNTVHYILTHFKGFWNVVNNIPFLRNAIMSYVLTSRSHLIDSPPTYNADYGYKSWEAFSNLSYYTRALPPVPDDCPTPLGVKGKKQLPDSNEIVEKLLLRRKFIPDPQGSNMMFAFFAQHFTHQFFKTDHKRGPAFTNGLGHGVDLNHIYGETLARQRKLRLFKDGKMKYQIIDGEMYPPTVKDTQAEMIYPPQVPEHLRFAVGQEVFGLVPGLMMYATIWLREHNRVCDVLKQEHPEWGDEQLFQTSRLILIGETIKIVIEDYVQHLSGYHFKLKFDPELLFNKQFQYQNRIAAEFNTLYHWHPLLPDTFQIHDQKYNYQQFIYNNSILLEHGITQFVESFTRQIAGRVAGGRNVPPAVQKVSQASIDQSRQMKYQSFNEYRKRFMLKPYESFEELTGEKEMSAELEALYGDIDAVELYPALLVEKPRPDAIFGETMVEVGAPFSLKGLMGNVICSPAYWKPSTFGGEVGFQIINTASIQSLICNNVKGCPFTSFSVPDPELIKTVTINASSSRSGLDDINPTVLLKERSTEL
Put plainly: Inhibition of COX II in vitro (radiometric assay, 14C arachidonic acid, partially purified enzyme). The assay is classed as biochemical. How it is done: as §1, §2

Another assay deals with air pouch PGE2 formation. Kind of assay: Inhibition of eicosanoid (PGE2) synthesis in vivo: carrageenan air-pouch model in rats. Particulars: oral, male rats. Set-up: species or system rat. As for the experimental part: In this assay, an air-pouch is created in the rat and the PGE2 levels in the air-pouch exudate are measured by enzyme immunoassay. Briefly, male rats were anesthetized using a 60:40 CO2 :O2 mixture and subsequently injected subcutaneously with 20 ml of sterilized air, under aseptic conditions, in the proximal area of the dorsum. This injection of sterile air causes the creation of a subcutaneous "air pouch". The next day, a further 10 ml of sterile air was injected into the previously formed pouch using the same technique. […] Control rats received vehicle alone. After 30 minutes, 5 ml of a 0.5% solution of carrageenan (Sigma, Lambda Type IV) was injected into the air pouch. The rats were euthanized 3 or 6 h after the compound administration. […] The total exudate volume was recorded, and the samples were analyzed for PGE2 and 6-keto PGF1 by ELISA (Titerzyme®, PerSeptive Diagnostics) and TxB2 by radioimmuno assay (New England Nuclear Research, Catalog No. NEK-037), according to the manufacturer's directions.
The mean concentrations of PGE2 were calculated for each group. The anti-inflammatory activity of test materials is expressed as the percent inhibition of PGE2 formation in the test group relative to the control group.

Setting [1] is: partially purified COX I, 20 micromolar arachidonic acid, 10 min preincubation, room temperature, read-out: COX I IC50.
[2] abbreviates: partially purified COX II, 20 micromolar arachidonic acid, 10 min preincubation, room temperature, read-out: COX II IC50.

Molecules are shown by their SMILES. Like-named read-outs stand apart in the source and are kept apart here.

T1 sequence (P23219 24-599): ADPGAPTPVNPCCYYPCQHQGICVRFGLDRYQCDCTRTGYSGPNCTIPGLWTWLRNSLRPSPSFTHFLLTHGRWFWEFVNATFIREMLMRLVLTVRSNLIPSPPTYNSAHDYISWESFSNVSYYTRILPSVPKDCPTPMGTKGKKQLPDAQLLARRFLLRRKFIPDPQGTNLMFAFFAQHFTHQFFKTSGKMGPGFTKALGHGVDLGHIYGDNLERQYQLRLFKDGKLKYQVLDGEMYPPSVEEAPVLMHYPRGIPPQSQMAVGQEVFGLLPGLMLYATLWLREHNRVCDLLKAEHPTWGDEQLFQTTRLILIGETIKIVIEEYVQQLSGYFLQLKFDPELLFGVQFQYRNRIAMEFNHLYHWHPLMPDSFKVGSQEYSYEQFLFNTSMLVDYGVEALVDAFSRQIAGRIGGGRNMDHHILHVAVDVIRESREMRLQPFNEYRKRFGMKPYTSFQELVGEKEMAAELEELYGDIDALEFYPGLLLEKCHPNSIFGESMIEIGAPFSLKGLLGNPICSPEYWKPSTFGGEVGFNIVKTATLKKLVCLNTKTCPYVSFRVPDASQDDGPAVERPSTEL

With `COc1ccc(C(=O)c2c(C)cc(Cc3ncc(NS(C)(=O)=O)cc3Cl)n2C)cc1` [compound 284, N-{3-Chloro-2-[5-(4-methoxybenzoyl)-1,4-dimethyl-1H-pyrrol-2-ylmethyl]pyridin-5-yl}-methanesulfonamide], the results for the IC50 on COX I (setting [1]) and at COX II (setting [2]) were 22000 nM and 500 nM, respectively. In the assay on air pouch PGE2 formation (10 mg/Kg, 3 hr), the “% Inhibition of air pouch PGE2 formation” value is 65%.

As for `CSc1ccc(C(=O)c2c(C)cc(Cc3ccc(N)cn3)n2C)cc1` [compound 334, {2-[5-(4-Methylthiobenzoyl)-1,4-dimethyl-1H-pyrrol-2-ylmethyl]pyridin-5-yl}amine], the 50% inhibitory concentration (IC50) at COX I (setting [1]) was determined as 18300 nM; at COX II (setting [2]), 640 nM. Moreover, the “% Inhibition of air pouch PGE2 formation” value in the assay on air pouch PGE2 formation (10 mg/Kg, 3 hr) came out at 44%.

`CN(C)c1ccc(C(=O)c2ccc(Cc3ccc(NS(C)(=O)=O)cc3F)n2C)cc1` [compound 88, N-{3-Fluoro-4-[5-(4-dimethylaminobenzoyl)-1-methyl-1H-pyrrol-2-ylmethyl]phenyl}-methanesulfonamide]: the IC50 is under 100 nM on COX I (setting [1]) and 60 nM at COX II (setting [2]).

For the compound `CSc1ccc(C(=O)c2c(C)cc(Cc3ccc(NS(=O)(=O)N(C)C)cn3)n2C)cc1` [compound 296, 1-{2-[5-(4-Methylthiobenzoyl)-1,4-dimethyl-1H-pyrrol-2-ylmethyl]pyridin-5-yl}-3,3-di-methylsulfamide], the IC50 on COX I (setting [1]) is 210 nM; on COX II (setting [2]), 400 nM.

Consider `Cc1cc(Cc2ccc(N)cc2)n(C)c1C(=O)c1ccc(Cl)cc1` [compound 250, 4-[5-(4-Chlorobenzoyl)-1,4-dimethyl-1H-pyrrol-2-ylmethyl]aniline], for which the values for the concentration for half-maximal inhibition (IC50) at COX I (setting [1]) and at COX II (setting [2]) were 34000 nM and 27400 nM, respectively.

In the case of `CC(=O)Nc1ccc(Cc2cc(C)c(C(=O)c3ccc(Cl)cc3)n2C)nc1` [compound 329, N-{2-[5-(4-Chlorobenzoyl)-1,4-dimethyl-1H-pyrrol-2-ylmethyl]pyridin-5-yl}acetamide], the figures for the half-maximal inhibitory concentration (IC50) at COX I (setting [1]) and at COX II (setting [2]) were 256000 nM and 43700 nM, respectively.

With `CNS(=O)(=O)Nc1ccc(Cc2ccc(C(=O)c3ccc(C)cc3C)n2C)c(F)c1` [compound 172, 1-{3-Fluoro-4-[5-(2,4-dimethylbenzoyl)-1-methyl-1H-pyrrol-2-ylmethyl]phenyl}-3-methylsulfamide], the IC50 at COX I (setting [1]) is 43000 nM; on COX II (setting [2]), 90 nM.

Consider `Cc1cc(Cc2ccc(NS(C)(=O)=O)cc2F)n(C)c1C(=O)c1ccccc1` [compound 60, N-{3-Fluoro-4-[5-benzoyl-1,4-dimethyl-1H-pyrrol-2-ylmethyl]phenyl}methanesulfonamide], for which the values for the IC50 at COX I (setting [1]) and at COX II (setting [2]) were 160 nM and 28 nM, respectively.

As for `Cc1cc(Cc2ccc(NC(=O)Nc3cccc(Cl)c3)cc2)n(C)c1C(=O)c1ccc(Cl)cc1` [compound 228, 1-{4-[5-(4-Chlorobenzoyl)-1,4-dimethyl-1H-pyrrol-2-ylmethyl]phenyl}-3-(3-chlorophenyl)-urea], the IC50 at COX I (setting [1]) came to 8500 nM; at COX II (setting [2]), 100 nM.

Turning to `COc1ccccc1C(=O)c1ccc(Cc2ccc(NS(C)(=O)=O)cc2F)n1C` [compound 72, N-{3-Fluoro-4-[5-(2-methoxybenzoyl)-1-methyl-1H-pyrrol-2-ylmethyl]phenyl}-methanesulfonamide], the half-inhibitory concentration (IC50) on COX I (setting [1]) turned out to be 265000 nM; at COX II (setting [2]), 700 nM.

On to `COc1ccc(C(=O)c2ccc(Cc3ccc(NS(N)(=O)=O)cc3C#N)n2C)cc1` [compound 202, 1-{3-Cyano-4-[5-(4-methoxybenzoyl)-1-methyl-1H-pyrrol-2-ylmethyl]phenyl}-sulfamide], for which the IC50 at COX I (setting [1]) amounted to 3200 nM; at COX II (setting [2]), 50 nM.

Take `Cc1ccc(C(=O)c2ccc(Cc3ccc(NS(C)(=O)=O)cn3)n2C)cc1` [compound 271, N-{2-[5-(4-Methylbenzoyl)-1-methyl-1H-pyrrol-2-ylmethyl]pyridin-5-yl}methane-sulfonamide]: the values for the 50% inhibitory concentration (IC50) on COX I (setting [1]) and on COX II (setting [2]) were 89000 nM and 430 nM, respectively. Further, the “% Inhibition of air pouch PGE2 formation” value in the assay on air pouch PGE2 formation (10 mg/Kg, 3 hr) is 56%.

Consider `Cn1c(Cc2ccc(NS(=O)(=O)CCO)cc2F)ccc1C(=O)c1ccccc1` [compound 66, N-{3-Fluoro-4-[5-benzoyl-1-methyl-1H-pyrrol-2-ylmethyl]phenyl}-2-(hydroxy)-ethanesulfonamide], for which the half-inhibitory concentration (IC50) at COX I (setting [1]) worked out at 6900 nM; on COX II (setting [2]), 120 nM.

As to `CNS(=O)(=O)Nc1ccc(Cc2cc(C)c(C(=O)c3ccc(F)cc3)n2C)c(F)c1` [compound 206, 1-{3-Fluoro-4-[5-(4-fluorobenzoyl)-1,4-dimethyl-1H-pyrrol-2-ylmethyl]phenyl}-3-methylsulfamide], the IC50 was found to be 460 nM at COX I (setting [1]) and 240 nM on COX II (setting [2]).

In the case of `Cc1cc(Cc2ccc(NC(=O)CF)cc2)n(C)c1C(=O)c1ccc(Cl)cc1` [compound 243, N-{4-[5-(4-Chlorobenzoyl)-1,4-dimethyl-1H-pyrrol-2-ylmethyl]phenyl}fluoroacetamide], the 50% inhibitory concentration (IC50) against COX I worked out at 100000 nM; against COX II, 8900 nM.

Regarding `Cc1ccccc1C(=O)c1ccc(Cc2ccc(NS(C)(=O)=O)cc2F)n1C` [compound 71, N-{3-Fluoro-4-[5-(2-methylbenzoyl)-1-methyl-1H-pyrrol-2-ylmethyl]phenyl}-methanesulfonamide], the IC50 amounted to 38000 nM at COX I (setting [1]) and 160 nM at COX II (setting [2]).

`CNC(=S)Nc1ccc(Cc2cc(C)c(C(=O)c3ccc(Cl)cc3)n2C)cc1` [compound 236]: the half-maximal inhibitory concentration (IC50) stood at 15000 nM at COX I (setting [1]) and 510 nM at COX II (setting [2]). Also, the “% Inhibition of air pouch PGE2 formation” value with air pouch PGE2 formation (30 mg/Kg, 6 hr) worked out at 71%.

With `Cc1ccc(C(=O)c2c(C)cc(Cc3ccc(NS(C)(=O)=O)cc3F)n2C)cc1` [compound 38, N-{3-Fluoro-4-[5-(4-methylbenzoyl)-1,4-dimethyl-1H-pyrrol-2-ylmethyl]phenyl}-methanesulfonamide], the IC50 on COX I (setting [1]) came to 270 nM; on COX II (setting [2]), 65 nM.

As to `Cc1cc(Cc2ccc(NS(N)(=O)=O)cn2)n(C)c1C(=O)c1ccccc1` [compound 295, 1-{2-[5-benzoyl-1,4-dimethyl-1H-pyrrol-2-ylmethyl]pyridin-5-yl}sulfamide], the IC50 on COX I (setting [1]) is 600 nM; on COX II (setting [2]) it was 100 nM.

Turning to `Cc1cc(Cc2ccc(NC(=O)N(C)C)cn2)n(C)c1C(=O)c1ccc(Cl)cc1` [compound 308, 1-{2-[5-(4-Chlorobenzoyl)-1,4-dimethyl-1H-pyrrol-2-ylmethyl]pyridin-5-yl}-3,3-di-methylurea], the half-maximal inhibitory concentration (IC50) on COX I (setting [1]) was 650000 nM; on COX II (setting [2]), 8750 nM.

For the origin of these results see patent US5952368A, “5-aroylpyrrol-2-ylmethylarene derivatives” (Syntex (U.S.A.) Inc., priority 1997, dated 1999).
